The target of this experiment is T1, human TGR5 (Homo sapiens, UniProt Q8TDU6).
T1 construct: expressed in transfected cells; host or cells: HEK293
T1 sequence (Q8TDU6 1-330): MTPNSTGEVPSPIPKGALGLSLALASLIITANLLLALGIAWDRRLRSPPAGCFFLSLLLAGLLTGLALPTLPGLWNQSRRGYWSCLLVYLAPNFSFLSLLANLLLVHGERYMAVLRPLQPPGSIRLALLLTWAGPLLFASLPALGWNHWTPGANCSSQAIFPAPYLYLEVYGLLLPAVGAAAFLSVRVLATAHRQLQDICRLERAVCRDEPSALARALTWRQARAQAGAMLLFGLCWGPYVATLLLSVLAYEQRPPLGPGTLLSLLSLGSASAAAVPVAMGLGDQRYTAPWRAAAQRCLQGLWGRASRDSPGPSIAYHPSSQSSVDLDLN
The experiment in a line: Cell-based TGR5 assay (cAMP generation, HTRF). To be noted: HEK293 cells stably transfected with human TGR5; cAMP by HTRF; 30 minutes at 37° C.; read-out: pEC50 Human TGR5 (converted). In short, it runs like this: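 First, compounds in 3-fold serial dilution were placed in HBSS with 10 mM HEPES pH 7.4 and 0.5 mM IBMX. Next, human TGR5-expressing HEK293 cells were added and incubated 30 min at 37° C. Finally, cAMP was detected by HTRF and pEC50 derived by logistic fitting.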
`CCN(CCCCNC(=O)NC[C@H](O)[C@@H](O)[C@H](O)[C@H](O)CO)S(=O)(=O)c1ccc(Cl)c(CNC2(c3cnccc3-c3ccccc3OC3CC3)CC2)c1` [Compound I-473, 1-(4-{N-ethyl4-chloro-3-[({1-[4-(2-cyclopropoxyphenyl)pyridin-3-yl]cyclopropyl}amino)methyl]benzenesulfonamido}butyl)-3-[(2S,3R,4R,5R)-2,3,4,5,6-pentahydroxyhexyl]urea]: the EC50 was under 100 nM.

Regarding `CN(CCCCNC(=O)NC[C@H](O)[C@@H](O)[C@H](O)[C@H](O)CO)S(=O)(=O)c1cc(CNC2(c3cnccc3-c3ccccc3OC3CC3)CC2)c(Cl)cc1F` [Compound I-474, 1-(4-{N-methyl4-chloro-5-[({1-[4-(2-cyclopropoxyphenyl)pyridin-3-yl]cyclopropyl}amino)methyl]-2-fluorobenzenesulfonamido}butyl)-3-[(2S,3R,4R,5R)-2,3,4,5,6-pentahydroxyhexyl]urea], the EC50 is under 100 nM.

On to `CN(CCCCNC(=O)N[C@@H](CO)[C@@H](O)[C@H](O)[C@H](O)CO)S(=O)(=O)c1cc(CNC2(c3cnccc3-c3ccccc3OC3CC3)CC2)c(Cl)cc1F` [Compound I-475, 1-(4-{N-methyl4-chloro-5-[({1-[4-(2-cyclopropoxyphenyl)pyridin-3-yl]cyclopropyl}amino)methyl]-2-fluorobenzenesulfonamido}butyl)-3-[(2S,3R,4S,5R)-1,3,4,5,6-pentahydroxyhexan-2-yl]urea], for which the EC50 was under 100 nM.

As for `CN(CCCCNC(=O)N[C@@H](CO)[C@@H](O)[C@H](O)[C@H](O)CO)S(=O)(=O)c1cc(CNC2(c3cnccc3-c3ccccc3OC3CC3)CC2)c(Cl)cc1Cl` [Compound I-476, 1-(4-{N-methyl2,4-dichloro-5-[({1-[4-(2-cyclopropoxyphenyl)pyridin-3-yl]cyclopropyl}amino)methyl]benzenesulfonamido}butyl)-3-[(2S,3R,4S,5R)-1,3,4,5,6-pentahydroxyhexan-2-yl]urea], the EC50 is 126 to 1000 nM.

In the case of `Cc1ccc(S(=O)(=O)N(C)CCCCNC(=O)NC[C@H](O)[C@@H](O)[C@H](O)[C@H](O)CO)cc1CNC1(c2cnccc2-c2ccccc2OC2CC2)CC1` [Compound I-477, 1-(4-{N-methyl3-[({1-[4-(2-cyclopropoxyphenyl)pyridin-3-yl]cyclopropyl}amino)methyl]-4-methylbenzenesulfonamido}butyl)-3-[(2S,3R,4R,5R)-2,3,4,5,6-pentahydroxyhexyl]urea], the EC50 is under 100 nM.

For the molecule `Cc1ccc(S(=O)(=O)N(C)CCCCNC(=O)N[C@@H](CO)[C@@H](O)[C@H](O)[C@H](O)CO)cc1CNC1(c2cnccc2-c2ccccc2OC2CC2)CC1` [Compound I-478, 1-(4-{N-methyl3-[({1-[4-(2-cyclopropoxyphenyl)pyridin-3-yl]cyclopropyl}amino)methyl]-4-methylbenzenesulfonamido}butyl)-3-[(2S,3R,4S,5R)-1,3,4,5,6-pentahydroxyhexan-2-yl]urea], the EC50 is under 100 nM.

Take `Cc1ccc(S(=O)(=O)N(C)CCCCNC(=O)NC[C@H](O)[C@@H](O)[C@H](O)[C@H](O)CO)cc1COC1(c2cnccc2-c2ccccc2OC2CC2)CC1` [Compound I-479, 1-{4-[N-methyl3-({1-[4-(2-cyclopropoxyphenyl)pyridin-3-yl]cyclopropoxy}methyl)-4-methylbenzenesulfonamido]butyl}-3-[(2S,3R,4R,5R)-2,3,4,5,6-pentahydroxyhexyl]urea]: the EC50 is under 100 nM.

For `O=C(NCC(O)C(O)C(O)C(O)CO)N[C@@H](CCCNS(=O)(=O)c1ccc(Cl)c(COC2(c3cnccc3-c3ccccc3OC3CC3)CC2)c1)C(=O)O` (stereo partly drawn) [Compound I-480, (2S)-5-[4-chloro-3-({1-[4-(2-cyclopropoxyphenyl)pyridin-3-yl]cyclopropoxy}methyl)benzenesulfonamido]-2-{[(2,3,4,5,6-pentahydroxyhexyl)carbamoyl]amino}pentanoic acid], the EC50 is under 100 nM.

As to `CCNC(=O)[C@H](N)CCCCNS(=O)(=O)c1ccc(Cl)c(COC2(c3cnccc3-c3ccccc3OC3CC3)CC2)c1` [Compound I-481, (2R)-2-amino-6-[4-chloro-3-({1-[4-(2-cyclopropoxyphenyl)pyridin-3-yl]cyclopropoxy}methyl)benzenesulfonamido]-N-ethylhexanamide], the EC50 is under 100 nM.

Turning to `CCNC(=O)[C@@H](CCCCNS(=O)(=O)c1ccc(Cl)c(COC2(c3cnccc3-c3ccccc3OC3CC3)CC2)c1)NC(=O)NC[C@H](O)[C@@H](O)[C@H](O)[C@H](O)CO` [Compound I-482, (2R)-6-[4-chloro-3-({1-[4-(2-cyclopropoxyphenyl)pyridin-3-yl]cyclopropoxy}methyl)benzenesulfonamido]-N-ethyl-2-({[(2S,3R,4R,5R)-2,3,4,5,6-pentahydroxyhexyl]carbamoyl}amino)hexanamide], the EC50 was 126 to 1000 nM.

As for `O=C(NCCCC[C@H](NS(=O)(=O)c1ccc(Cl)c(COC2(c3cnccc3-c3ccccc3OC3CC3)CC2)c1)C(=O)O)NC[C@H](O)[C@@H](O)[C@H](O)[C@H](O)CO` [Compound I-483, (2S)-2-[4-chloro-3-({1-[4-(2-cyclopropoxyphenyl)pyridin-3-yl]cyclopropoxy}methyl)benzenesulfonamido]-6-({[(2S,3R,4R,5R)-2,3,4,5,6-pentahydroxyhexyl]carbamoyl}amino)hexanoic acid], the EC50 is 126 to 1000 nM.

As to `N[C@@H](CCCCNS(=O)(=O)c1ccc(COC2(c3cnccc3-c3ccccc3OC3CC3)CC2)c(Cl)c1)C(=O)O` [Compound I-484, (S)-2-amino-6-(3-chloro-4-((1-(4-(2-cyclopropoxyphenyl)pyridine-3-yl)cyclopropoxy)methyl)phenylsulfonamido)hexanoic acid], the EC50 is under 100 nM.

As to `O=C(NC[C@H](O)[C@@H](O)[C@H](O)[C@H](O)CO)N[C@@H](CCCCNS(=O)(=O)c1ccc(COC2(c3cnccc3-c3ccccc3OC3CC3)CC2)c(Cl)c1)C(=O)O` [Compound I-485, (S)-6-(3-chloro-4-((1-(4-(2-cyclopropoxyphenyl)pyridine-3-yl)cyclopropoxy)methyl)phenylsulfonamido)-2-(3-((2S,3R,4R,5R)-2,3,4,5,6-pentahydroxyhexyl)ureido) hexanoic acid], the EC50 was under 100 nM.

On to `CCNC(=O)[C@@H](N)CCCCNS(=O)(=O)c1ccc(COC2(c3cnccc3-c3ccccc3OC3CC3)CC2)c(Cl)c1` [Compound I-486, (S)-2-amino-6-(3-chloro-4-((1-(4-(2-cyclopropoxyphenyl)pyridin-3-yl)cyclopropoxy)methyl)phenylsulfonamido)-N-ethylhexanamide], for which the EC50 is 126 to 1000 nM.

Take `CCNC(=O)[C@H](CCCCNS(=O)(=O)c1ccc(Cl)c(COC2(c3cnccc3-c3ccccc3OC3CC3)CC2)c1)NC(=O)NC[C@H](O)[C@@H](O)[C@H](O)[C@H](O)CO` [Compound I-487]: the EC50 is 126 to 1000 nM.

`O=C(NCCCCCSc1ccc(Cl)c(COC2(c3cnccc3-c3ccccc3OC3CC3)CC2)c1)NC[C@H](O)[C@@H](O)[C@H](O)[C@H](O)CO` [Compound I-488, 1-(5-[[4-Chloro-3-([1-[4-(2-cyclopropoxyphenyl)pyridin-3-yl]cyclopropoxy]methyl)phenyl]sulfanyl]pentyl)-3-[(2S,3R,4R,5R)-2,3,4,5,6-pentahydroxyhexyl]urea]: the EC50 is under 100 nM.

As to `O=C([C@@H](O)[C@@H](O)[C@H](O)[C@@H](O)CO)N(CCCCCSc1ccc(Cl)c(COC2(c3cnccc3-c3ccccc3OC3CC3)CC2)c1)CCOCCO` [Compound I-489, (2S,3S,4R,5S)-N-(5-[[4-chloro-3-([1-[4-(2-cyclopropoxyphenyl)pyridin-3-yl]cyclopropoxy]methyl)phenyl]sulfanyl]pentyl)-2,3,4,5,6-pentahydroxy-N-[2-(2-hydroxyethoxy)ethyl]hexanamide], the EC50 was under 100 nM.

In the case of `O=C(NCCOCCSc1ccc(Cl)c(COC2(c3cnccc3-c3ccccc3OC3CC3)CC2)c1)NC[C@H](O)[C@@H](O)[C@H](O)[C@H](O)CO` [Compound I-490, 1-[2-(2-[[4-Chloro-3-([1-[4-(2-cyclopropoxyphenyl)pyridin-3-yl]cyclopropoxy]methyl)phenyl]sulfanyl]ethoxy)ethyl]-3-[(2S,3R,4R,5R)-2,3,4,5,6-pentahydroxyhexyl]urea], the EC50 was under 100 nM.

Turning to `O=C(NCCOCC[S+]([O-])c1ccc(Cl)c(COC2(c3cnccc3-c3ccccc3OC3CC3)CC2)c1)NC[C@H](O)[C@@H](O)[C@H](O)[C@H](O)CO` (stereo partly drawn) [Compound I-491, 1-[2-(2-[[4-chloro-3-([1-[4-(2-cyclopropoxyphenyl)pyridin-3-yl]cyclopropoxy]methyl)benzene]sulfinyl]ethoxy)ethyl]-3-[(2S,3R,4R,5R)-2,3,4,5,6-pentahydroxyhexyl]urea], the EC50 is 126 to 1000 nM.

For the molecule `O=C(NCCOCCS(=O)(=O)c1ccc(Cl)c(COC2(c3cnccc3-c3ccccc3OC3CC3)CC2)c1)NC[C@H](O)[C@@H](O)[C@H](O)[C@H](O)CO` [Compound I-492, 1-[2-(2-[[4-Chloro-3-([l-[4-(2-cyclopropoxyphenyl)pyridin-3-yl]cyclopropoxy]methyl)benzene]sulfonyl]ethoxy)ethyl]-3-[(2S,3R,4R,5R)-2,3,4,5,6-pentahydroxyhexyl]urea], the EC50 was under 100 nM.

(Values after US12084472B2 (Ardelyx, Inc., priority 2015, dated 2024).)
